From patent US4705900A, “Insecticidal alkenes” (Imperial Chemical Industries PLC, priority 1985, dated 1987)

Assays:
Tetranychus urticae = assay: mortality of red spider mites (TU), contact test; format: in vivo, Tetranychus urticae (red spider mites - adult); details: Tetranychus urticae, 72 h, French bean leaf, 3 days, read-out: grading of mortality, TU
Experimental: (§1) The activity of the Product was determined using a variety of insect pests. The Product was used in the form of liquid preparations containing 500 or 100 parts per million (ppm) by weight of the Product. The preparations were made by dissolving the Product in acetone and diluting the solutions with water containing 0.01% by weight of a wetting agent sold under the trade name "LISSAPOL" NX until the liquid preparations contained the required concentration of the Product. "Lissapol" is a Registered Trade Mark.
(§2) The test procedure adopted with regard to each pest was basically the same and comprised supporting a number of the pests on a medium which was usually a host plant or a foodstuff on which the pests feed, and treating either or both the pests and the medium with the preparations. The mortality of the pests was then assessed at periods usually varying from one to three days after the treatment.
(§3) The results of the tests are given in Table IV for each of the Products, at the rate in parts per million given in the second column as a grading of mortality designated as A, B or C wherein A indicates 80-100% mortality or knockdown, B indicates 50-79% mortality or knockdown and C indicates less than 50% mortality or knockdown.
(§4) In Table IV the pest organism used is designated by a letter code and the pests species, the support medium or food, and the type and duration of test is given in Table III.
(red spider mites - adult)

Myzus persicae = assay: mortality of aphids (MP), contact test; format: in vivo, Myzus persicae (aphids); details: leaf, 2 days
Experimental: as §1, §2, §3, §4

Nilaparvata lugens = assay: mortality of green leaf hopper (NL), contact test; format: in vivo, Nilaparvata lugens (brown planthopper); details: cabbage leaf, 6 days
Experimental: as §1, §2, §3, §4

Musca domestica [1] = assay: knockdown of houseflies (MD/KD); format: in vivo, Musca domestica (houseflies - adults); details: Musca domestica, cotton wool/sugar, 4 hours, read-out: grading of knockdown, MD/KD
Experimental: as §1, §2
In case of the species Musca domestica (housefly), additional tests to determine the knockdown effect of the compounds were performed.
as §3, §4

Musca domestica [2] = assay: mortality of houseflies (MD), contact test; format: in vivo, Musca domestica (houseflies - adults); details: Musca domestica, 24 h, cotton wool/sugar, 1 day, read-out: grading of mortality, MD
Experimental: as §1, §2, §3, §4

Blattella germanica = assay: mortality of cockroach nymphs (BG), residual test; format: in vivo, Blattella germanica (cockroach nymphs); details: Blattella germanica, 72 h, plastic pot, 3 days, read-out: grading of mortality, BG
Experimental: as §1, §2, §3, §4

Heliothis viriscens = assay: whole plant or invertebrate; format: in vivo, Heliothis viriscens (tobacco budworm); details: in Gossypium hirsutum, 72 h, read-out: grading of mortality, HV
Experimental: as §1, §2, §3, §4

Chilo partellurs = assay: mortality of stem borers (CP), residual test; format: in vivo, Chilo partellurs (Stem borers); details: Chilo, 72 h, oil seed rape leaf, 3 days, read-out: grading of mortality, CP
Experimental: as §1, §2, §3, §4

Diabrotica balteata = assay: mortality of rootworm larvae (DB), residual test; format: in vivo, Diabrotica balteata (rootworm larvae); details: filter paper/maize seed, 3 days
Experimental: as §1, §2, §3, §4

[3] = Myzus persicae, 48 h, 500 ppm, read-out: grading of mortality, MP
[4] = Nilaparvata lugens, in Brassica oleracea, 144 h, 500 ppm, read-out: grading of mortality, NL
[5] = Diabrotica balteata, in Zea mays, 72 h, 500 ppm, read-out: grading of mortality, DB

Row | SMILES | mortality at 500 ppm (Tetranychus urticae) [%] | mortality at 500 ppm (Myzus persicae; [3]) [%] | mortality at 500 ppm (Nilaparvata lugens; [4]) [%] | pest or weed control at 500 ppm (Musca domestica [1]) [%] | mortality at 500 ppm (Musca domestica [2]) [%] | mortality at 500 ppm (Blattella germanica) [%] | mortality at 500 ppm (Heliothis viriscens) [%] | mortality at 500 ppm (Chilo partellurs) [%] | mortality at 500 ppm (Diabrotica balteata; [5]) [%] | further results
1 | CC(C)(C=Cc1ccccc1)COCc1ccc(F)c(Oc2ccccc2)c1 [Compound 9, 3,3-Dimethyl-1-phenyl-4-(4-fluoro-3-phenoxybenzyloxy)but-1-ene] | < 50 | 80 to 100 | 80 to 100 | 80 to 100 | 80 to 100 | < 50 | 80 to 100 | 80 to 100 | 80 to 100 | 
2 | Clc1ccc(/C=C/C2(COCc3cccc(Oc4ccccc4)c3)CC2)cc1 [Compound 22, 1-[2-(4-chlorophenyl)ethen-1-yl]-1-(3-phenoxybenzyloxymethyl)cyclopropane] | < 50 | < 50 | 50 to 79 | < 50 | < 50 | < 50 | < 50 | 80 to 100 | < 50 | 
3 | COc1ccc(/C=C/C(C)(C)COCc2ccc(F)c(Oc3ccccc3)c2)cc1 [Compound 24, 3,3-dimethyl-1-(4-methoxyphenyl)-4-(4-fluoro-3-phenoxybenzyloxy)but-1-ene] | 50 to 79 | 50 to 79 | 80 to 100 | 80 to 100 | 80 to 100 | < 50 | 50 to 79 | 80 to 100 | < 50 | 
4 | CCOc1ccc(/C=C/C(C)(C)COCc2ccc(F)c(Oc3ccccc3)c2)cc1 [Compound 10, 3,3-Dimethyl-1-(4-ethoxyphenyl)-4-(4-fluoro-3-phenoxybenzyloxy)but-1-ene] | < 50 | 50 to 79 | < 50 | 50 to 79 | 50 to 79 | < 50 | 80 to 100 | 80 to 100 | < 50 | 
5 | CCOc1ccc(/C=C\C(C)(C)COCc2cccc(Oc3ccccc3)c2)cc1 [Compound 3, 3,3-Dimethyl-1-(4-ethoxyphenyl)-4-(3-phenoxybenzyloxy)but-1-ene] | < 50 | < 50 | < 50 | < 50 | < 50 | < 50 | < 50 | < 50 | < 50 | 
6 | CCOc1ccc(CCC(C)(C)COCc2cccc(Oc3ccccc3)c2)cc1 [Compound 33, 3,3-Dimethyl-1-(4-ethoxyphenyl)-4-(3-phenoxybenzyloxy)butane] | < 50 | < 50 | < 50 | < 50 | < 50 | < 50 | < 50 | 80 to 100 | < 50 | 
7 | Fc1ccc(/C=C/C2(COCc3cccc(Oc4ccccc4)c3)CC2)cc1 [Compound 19, 1-[2-(4-fluorophenyl)ethen-1-yl]-1-(3-phenoxybenzyloxymethyl)cyclopropane] |  |  |  |  |  |  |  |  |  | mortality at 100 ppm (Tetranychus urticae; 100 ppm): < 50%; mortality at 100 ppm (Myzus persicae; Myzus persicae, 48 h, 100 ppm, read-out: grading of mortality, MP): < 50%; mortality at 100 ppm (Nilaparvata lugens; Nilaparvata lugens, in Brassica oleracea, 144 h, 100 ppm, read-out: grading of mortality, NL): < 50%; pest or weed control at 100 ppm (Musca domestica [1]; 100 ppm): < 50%; mortality at 100 ppm (Musca domestica [2]; 100 ppm): < 50%; mortality at 100 ppm (Blattella germanica; 100 ppm): < 50%; mortality at 100 ppm (Heliothis viriscens): 80 to 100%; mortality at 100 ppm (Chilo partellurs; 100 ppm): < 50%; mortality at 100 ppm (Diabrotica balteata; Diabrotica balteata, in Zea mays, 72 h, 100 ppm, read-out: grading of mortality, DB): < 50%
8 | Cc1ccc(C=CC(C)(C)COCc2ccc(F)c(Oc3ccccc3)c2)cc1 [Compound 8, 3,3-Dimethyl-1-(4-methylphenyl)-4-(4-fluoro-3-phenoxybenzyloxy)but-1-ene] | < 50 | 80 to 100 | 80 to 100 | 80 to 100 | 80 to 100 | 50 to 79 | 80 to 100 | 80 to 100 | 80 to 100 | 
9 | CC(C)(C=Cc1ccc(Cl)cc1)COCc1cccc(Oc2ccccc2)c1 [Compound 1, 3,3-Dimethyl-1-(4-chlorophenyl)-4-(3-phenoxybenzyloxy)but-1-ene] | 50 to 79 |  |  | 80 to 100 | 50 to 79 | < 50 | 80 to 100 | 80 to 100 |  | grading of mortality, MP (Myzus persicae; 500 ppm, 2880 min): C (C indicates less than 50% mortality or knockdown); grading of mortality, NL (Nilaparvata lugens; 500 ppm, 8640 min): B (B indicates 50-79% mortality or knockdown); grading of mortality, DB (Diabrotica balteata; 500 ppm, 4320 min): C (C indicates less than 50% mortality or knockdown)
10 | CC(C)(/C=C/c1ccc(C(F)(F)F)cc1)COCc1cccc(Oc2ccccc2)c1 [Compound 12, 3,3-dimethyl-1-(4-trifluoromethylphenyl)-4-(3-phenoxybenzyloxy)but-1-ene] | < 50 | 50 to 79 | 80 to 100 | < 50 | < 50 | 50 to 79 | < 50 | 80 to 100 | < 50 | 
11 | CCC(C)(/C=C\c1ccc(Cl)cc1)COCc1cccc(Oc2ccccc2)c1 (stereo not drawn) [Compound 26, 3-Ethyl-3-methyl-1-(4-chlorophenyl)-4-(3-phenoxybenzyloxy)but-1-ene] | < 50 | < 50 | < 50 | < 50 | < 50 | < 50 | < 50 | < 50 | < 50 | 
12 | Cc1ccc(C=CC(C)(C)COCc2cccc(Oc3ccccc3)c2)cc1 [Compound 14, 3,3-Dimethyl-1-(4-methylphenyl)-4-(3-phenoxybenzyloxy)but-1-ene] | < 50 | < 50 | 50 to 79 | < 50 | < 50 | < 50 | 80 to 100 | 80 to 100 | 50 to 79 | 
13 | CC(C)(C=Cc1cccc(F)c1)COCc1cccc(Oc2ccccc2)c1 [Compound 17, 3,3-Dimethyl-1-(3-fluorophenyl)-4-(3-phenoxybenzyloxy)but-1-ene] | < 50 | < 50 | < 50 | < 50 | < 50 | < 50 | 80 to 100 | 80 to 100 | < 50 | 
14 | Fc1ccc(/C=C\C2(COCc3cccc(Oc4ccccc4)c3)CC2)cc1 [Compound 20, 1-[2-(4-fluorophenyl)ethen-1-yl]-1-(3-phenoxybenzyloxymethyl)cyclopropane] | < 50 | 50 to 79 | < 50 | < 50 | < 50 | < 50 | < 50 | 80 to 100 | < 50 | 
